Laboratory results published in publication PMC8956739, “A synthetic lipopeptide targeting top-priority multidrug-resistant Gram-negative pathogens” (Nature Communications, 2022).
Values after ≈ are worked out from the molar mass of the structure shown. Values joined by “and” are separate entries in the source; they are usually repeats but may differ in a detail not shown here. Identical values can stand only once. Like-named read-outs stand apart in the source and are kept apart here. Residues, ends and D or L forms follow the SMILES beside them.

What was measured:
[1] = test system: P. aeruginosa ATCC 27853; assay: Neutropenic mouse bloodstream infection model; format: in vivo; conditions: single IV dose 4 mg/kg; for Log10 CFU/mL blood at 4 h, Mean / Δlog10 CFU/mL blood (mean) / Log10 CFU/mL blood at 4 h, single mouse: 4 h; for Δlog10 CFU/mL blood (mean): treated minus control, mean of replicates; for Δlog10 CFU/mL blood (mean) / Log10 CFU/mL blood at 4 h, single mouse / Delta Log10 CFU/mL blood at 4 h, single mouse: 4 mg/kg; for Delta Log10 CFU/mL blood at 4 h, single mouse: treated mouse minus mean of vehicle mice
Method: The experimental methodology for the neutropenic mouse bloodstream infection model was described previously. Briefly, 7-week-old female Swiss mice (22–28 g) were rendered neutropenic by intraperitoneal administration of cyclophosphamide, 4 days (150 mg/kg) and 1 day (100 mg/kg) prior to inoculation. Bloodstream infection was established by intravenous administration of a 50 µL bolus of early log-phase bacterial suspension (4 × 10^8 CFU/mL). Lipopeptide solutions were prepared at 1 mg/mL (free base) in sterile saline. At 2 h after inoculation, mice (n = 3) were injected intravenously with lipopeptide solution at 4 mg/kg (free base) or saline control. At 0 and 4 h after administration, blood was collected, diluted serially in sterile saline, and plated on nutrient agar plates. Agar plates were incubated at 37 °C overnight for bacterial colony counting and the bacterial load in the blood (log10 CFU/mL) in each mouse was calculated. In vivo efficacy was calculated as the difference of the log10 CFU/mL blood values between the treated mice and the saline-treated mice at 4 h post dosing (Δlog10 CFU/mL blood = log10 [treated] CFU/mL blood − log10[control] CFU/mL blood).

[2] = test system: Swiss mice, kidney; assay: Nephrotoxicity in mice (kidney histopathology); format: in vivo, mouse; conditions: for Kidney histopathology (SQS Score): n = 3
Method: The experimental methodology has been previously reported by our group. Briefly, individual lipopeptide solutions were prepared in sterile saline (6 mg/mL). Swiss mice (female, 7-week-old, 22–28 g) were subcutaneously administered at 12 mg/kg in, 6 doses every 2 h to reach a total dose of 72 mg/kg (n = 3). For high-dose nephrotoxicity experiments, mice were intraperitoneally administered at 20 or 25 mg/kg, in 6 doses every 2 h to reach a total dose of 120 mg/kg (n = 6) or 150 mg/kg (n = 3). At 20 h after the last dose, the right kidney from each mouse was collected and placed in 10% buffered (pH 7.4) formalin (Sigma-Aldrich, Castle Hill, NSW, Australia). The kidneys were subjected to histological examination at the Australian Phenomics Network-Histopathology and Organ Pathology (University of Melbourne, Parkville, VIC, Australia), who was blind to the treatment groups.

[3] = test system: A. baumannii ATCC 19606; format: cell-based, Acinetobacter baumannii
Method: (§1) MICs were determined in cation-adjusted Mueller–Hinton broth (CaMHB) by the broth micro-dilution method against ATCC strains and clinical isolates. MICs in the presence of Survanta® were determined as described above against P. aeruginosa ATCC 27853. In the 100 μL of fresh CaMHB containing polymyxins, 10% Survanta® (v/v, 2.5 mg/mL phospholipids) was added. MICs in the presence and absence of Survanta® were compared to determine the effect of binding to lung surfactant on the antibacterial activity of polymyxins.

[4] = test system: A. baumannii FADDI-AB030; format: cell-based, Acinetobacter baumannii
Method: as §1

[5] = test system: A. baumannii FADDI-AB034; format: cell-based, Acinetobacter baumannii
Method: as §1

[6] = test system: P. aeruginosa ATCC 27853; format: cell-based, Pseudomonas aeruginosa
Method: as §1

[7] = test system: P. aeruginosa FADDI-PA025; format: cell-based, Pseudomonas aeruginosa
Method: as §1

[8] = test system: P. aeruginosa FADDI-PA038; format: cell-based, Pseudomonas aeruginosa
Method: as §1

[9] = test system: K. pneumoniae FADDI-KP032; format: cell-based, Klebsiella pneumoniae
Method: as §1

[10] = test system: K. pneumoniae FADDI-KP065; format: cell-based, Klebsiella pneumoniae
Method: as §1

[11] = 72 mg/kg/d subcutaneously in six divided doses every 2 h

SMILES	Log10 CFU/mL blood at 4 h, Mean [1]	Δlog10 CFU/mL blood (mean) [1]	Log10 CFU/mL blood at 4 h, single mouse [1]	Delta Log10 CFU/mL blood at 4 h, single mouse [1]	Kidney histopathology (SQS Score) [2, 11]	Kidney histopathology, mice with the SQS score ([2]; mouse, in vivo)	MIC A. baumannii ATCC 19606 ([3]; ATCC 19606)	MIC A. baumannii FADDI-AB030 ([4]; FADDI-AB030)	MIC A. baumannii FADDI-AB034 ([5]; FADDI-AB034)	MIC P. aeruginosa ATCC 27853 ([6]; ATCC 27853)	MIC P. aeruginosa FADDI-PA025 ([7]; FADDI-PA025)	MIC P. aeruginosa FADDI-PA038 ([8]; FADDI-PA038)	MIC K. pneumoniae FADDI-KP032 ([9]; FADDI-KP032)	MIC K. pneumoniae FADDI-KP065 ([10]; FADDI-KP065)	also measured
CC[C@@H]1NC(=O)[C@@H](CC(C)C)NC(=O)[C@H](CCN)NC(=O)[C@@H](NC(=O)[C@H](CN)NC(=O)[C@@H](NC(=O)[C@H](CCN)NC(=O)c2cccc(Cl)c2)[C@@H](C)O)CCNC(=O)[C@H]([C@@H](C)O)NC(=O)[C@H](CCN)NC(=O)[C@H](CCN)NC1=O [Lipopeptide F371] (HELM PEPTIDE1{[O=C(c1cccc(Cl)c1)[*:2]].[Dab].T.[NC[C@H](N[*:1])C(=O)[*:2]].[Dab].[Dab].[dL].[Abu].[Dab].[Dab].T}$PEPTIDE1,PEPTIDE1,5:R3-11:R2$$$V2.0)	4.61 Log10 CFU/mL blood	−3.33 log10 CFU/mL blood	4.74 Log10 CFU/mL blood and 4.86 Log10 CFU/mL blood and 4.22 Log10 CFU/mL blood	-3.20 Log10 CFU/mL blood and -3.08 Log10 CFU/mL blood and -3.71 Log10 CFU/mL blood	0 (SQS 0 = no significant change (overall score, <1))	–	–	–	–	–	–	–	–	–	Kidney histopathology, mice with the SQS score [2, 11]: 3/3; MIC A. baumannii ATCC 19606 [3]: 4 µg/mL (≈ 3.55 µM); MIC A. baumannii FADDI-AB030 ([4]; carbapenem-resistant isolate): 1 µg/mL (≈ 0.888 µM); MIC A. baumannii FADDI-AB034 ([5]; carbapenem-resistant isolate): 1 µg/mL (≈ 0.888 µM); MIC P. aeruginosa ATCC 27853 [6]: 0.5 µg/mL (≈ 0.444 µM); MIC P. aeruginosa FADDI-PA025 ([7]; MDR clinical isolate): 1 µg/mL (≈ 0.888 µM); MIC P. aeruginosa FADDI-PA038 ([8]; carbapenem-resistant isolate): 2 µg/mL (≈ 1.78 µM); MIC K. pneumoniae FADDI-KP032 ([9]; carbapenem-resistant isolate): 0.5 µg/mL (≈ 0.444 µM); MIC K. pneumoniae FADDI-KP065 ([10]; carbapenem-resistant isolate): 1 µg/mL (≈ 0.888 µM)
CC[C@@H]1NC(=O)[C@@H](CC(C)C)NC(=O)[C@H](CCN)NC(=O)[C@@H](NC(=O)[C@H](CN)NC(=O)[C@@H](NC(=O)[C@H](CCN)NC(=O)c2ccc(Cl)cc2)[C@@H](C)O)CCNC(=O)[C@H]([C@@H](C)O)NC(=O)[C@H](CCN)NC(=O)[C@H](CCN)NC1=O [Lipopeptide F378] (HELM PEPTIDE1{[O=C(c1ccc(Cl)cc1)[*:2]].[Dab].T.[NC[C@H](N[*:1])C(=O)[*:2]].[Dab].[Dab].[dL].[Abu].[Dab].[Dab].T}$PEPTIDE1,PEPTIDE1,5:R3-11:R2$$$V2.0)	4.71 Log10 CFU/mL blood	−3.23 log10 CFU/mL blood	4.78 Log10 CFU/mL blood and 4.64 Log10 CFU/mL blood	-3.16 Log10 CFU/mL blood and -3.30 Log10 CFU/mL blood	0 (SQS 0 = no significant change (overall score, <1))	3/3	1 µg/mL (≈ 0.888 µM)	1 µg/mL (≈ 0.888 µM)	0.25 µg/mL (≈ 0.222 µM)	0.5 µg/mL (≈ 0.444 µM)	2 µg/mL (≈ 1.78 µM)	1 µg/mL (≈ 0.888 µM)	0.25 µg/mL (≈ 0.222 µM)	1 µg/mL (≈ 0.888 µM)	–
CCCCCCCC(=O)N[C@@H](CCN)C(=O)N[C@H](C(=O)N[C@@H](CCN)C(=O)N[C@H]1CCNC(=O)[C@H]([C@@H](C)O)NC(=O)[C@H](CCN)NC(=O)[C@H](CCN)NC(=O)[C@H]([C@@H](C)O)NC(=O)[C@@H](CC(C)C)NC(=O)[C@H](CCN)NC1=O)[C@@H](C)O [Lipopeptide F100] (HELM PEPTIDE1{[CCCCCCCC(=O)[*:2]].[Dab].T.[Dab].[Dab].[Dab].[dL].T.[Dab].[Dab].T}$PEPTIDE1,PEPTIDE1,5:R3-11:R2$$$V2.0)	4.44 Log10 CFU/mL blood	−3.01 log10 CFU/mL blood	4.50 Log10 CFU/mL blood and 4.28 Log10 CFU/mL blood and 4.53 Log10 CFU/mL blood	-2.95 Log10 CFU/mL blood and -3.17 Log10 CFU/mL blood and -2.91 Log10 CFU/mL blood	0 (SQS 0 = no significant change (overall score, <1))	3/3	4 µg/mL (≈ 3.5 µM)	1 µg/mL (≈ 0.875 µM)	2 µg/mL (≈ 1.75 µM)	0.5 µg/mL (≈ 0.437 µM)	>32 µg/mL	0.5 µg/mL (≈ 0.437 µM)	0.25 µg/mL (≈ 0.219 µM)	<0.125 µg/mL	–
CCCCCCCC(=O)N[C@@H](CCN)C(=O)N[C@H](C(=O)N[C@H](CCN)C(=O)N[C@H]1CCNC(=O)[C@H]([C@@H](C)O)NC(=O)[C@H](CCN)NC(=O)[C@H](CCN)NC(=O)[C@H]([C@@H](C)O)NC(=O)[C@@H](CC(C)C)NC(=O)[C@H](CCN)NC1=O)[C@@H](C)O [Lipopeptide F085] (HELM PEPTIDE1{[CCCCCCCC(=O)[*:2]].[Dab].T.[NCC[C@@H](N[*:1])C(=O)[*:2]].[Dab].[Dab].[dL].T.[Dab].[Dab].T}$PEPTIDE1,PEPTIDE1,5:R3-11:R2$$$V2.0)	2.97 Log10 CFU/mL blood	−2.16 log10 CFU/mL blood	3.39 Log10 CFU/mL blood and 3.30 Log10 CFU/mL blood and 2.20 Log10 CFU/mL blood	-1.73 Log10 CFU/mL blood and -1.83 Log10 CFU/mL blood and -2.92 Log10 CFU/mL blood	+2 (SQS + 2 = mild to moderate damage (overall score, 15 to <30))	2/2	1 µg/mL (≈ 0.875 µM)	0.25 µg/mL (≈ 0.219 µM)	2 µg/mL (≈ 1.75 µM)	0.5 µg/mL (≈ 0.437 µM)	8 µg/mL (≈ 7 µM)	0.5 µg/mL (≈ 0.437 µM)	0.25 µg/mL (≈ 0.219 µM)	<0.125 µg/mL	–
